Assay results taken from ChEMBL document CHEMBL3885881, “DrugMatrix”.

Species on record: Rattus norvegicus
Assay: DrugMatrix - Regimen: Daily Repeat
Type: toxicity, organism-based, Sprague-Dawley
Parameters: regimen Daily Repeat, gender Male, age 6-8 weeks
Settings: in vivo, sc, route subcutaneous, […]; for ABSOLUTE BASOPHIL / ABSOLUTE EOSINOPHIL / ABSOLUTE LYMPHOCYTE / ABSOLUTE MONOCYTE / ABSOLUTE SEGMENTED NEUTROPHIL / BASOPHIL / EOSINOPHIL / ERYTHROCYTE COUNT / HEMATOCRIT / HEMOGLOBIN / LEUKOCYTE COUNT / LYMPHOCYTE / MEAN CORPUSCULAR HEMOGLOBIN / MEAN CORPUSCULAR HEMOGLOBIN CONCENTRATION / MEAN CORPUSCULAR VOLUME / MONOCYTE / NEUTROPHIL / NUCLEATED RED BLOOD CELLS / PLATELET COUNT: tissue Blood; for ALANINE AMINOTRANSFERASE / ALKALINE PHOSPHATASE / ASPARTATE AMINOTRANSFERASE / BLOOD UREA NITROGEN / CARBON DIOXIDE / CHLORIDE / CHOLESTEROL / CREATINE PHOSPHOKINASE / CREATININE / GLUCOSE / LACTATE DEHYDROGENASE / LIPASE / PHOSPHORUS / POTASSIUM / SODIUM / TOTAL BILIRUBIN / TOTAL PROTEIN / URIC ACID: tissue Plasma
[1] = 0 mg/kg, 72 h, dose level Control, time 3 day
[2] = 0 mg/kg, 120 h, dose level Control, time 5 day
[3] = 17 mg/kg, 72 h, dose level Low, time 3 day

CC(C)Cn1cnc2c(N)nc3ccccc3c21 [IMIQUIMOD]
ABSOLUTE BASOPHIL [1]: 0 CELLS/uL | ABSOLUTE EOSINOPHIL [1]: 42.67 CELLS/uL | ABSOLUTE LYMPHOCYTE [1]: 10202 CELLS/uL | ABSOLUTE MONOCYTE [1]: 261.5 CELLS/uL | ABSOLUTE SEGMENTED NEUTROPHIL [1]: 2193.83 CELLS/uL | BASOPHIL [1]: 0% | EOSINOPHIL [1]: 0.33% | ERYTHROCYTE COUNT [1]: 5.63 x10E6/uL | HEMATOCRIT [1]: 35.35% | HEMOGLOBIN [1]: 13.07 G/DL | LEUKOCYTE COUNT [1]: 12.7 x10E3/uL | LYMPHOCYTE [1]: 81.17% | MEAN CORPUSCULAR HEMOGLOBIN [1]: 23.23 pg | MEAN CORPUSCULAR HEMOGLOBIN CONCENTRATION [1]: 36.97 G/DL | MEAN CORPUSCULAR VOLUME [1]: 62.82 fL | MONOCYTE [1]: 2% | NEUTROPHIL [1]: 16.5% | NUCLEATED RED BLOOD CELLS [1]: 0 /100WBC | PLATELET COUNT [1]: 1180.33 x10E3/uL | ALANINE AMINOTRANSFERASE [1]: 48.67 u/L | ALKALINE PHOSPHATASE [1]: 360.67 u/L | ASPARTATE AMINOTRANSFERASE [1]: 85.5 u/L | BLOOD UREA NITROGEN [1]: 17.83 mg/dL | CARBON DIOXIDE [1]: 26.17 mmol/L | CHLORIDE [1]: 101.83 MEQ/L | CHOLESTEROL [1]: 71 mg/dL | CREATINE PHOSPHOKINASE [1]: 515.17 u/L | CREATININE [1]: 0.22 mg/dL | GLUCOSE [1]: 192.5 mg/dL | LACTATE DEHYDROGENASE [1]: 214.67 u/L | LIPASE [1]: 8.5 u/L | PHOSPHORUS [1]: 12.95 mg/dL | POTASSIUM [1]: 6.39 MEQ/L | SODIUM [1]: 142.38 MEQ/L | TOTAL BILIRUBIN [1]: 0.18 mg/dL | TOTAL PROTEIN [1]: 5.95 G/DL | URIC ACID [1]: 1.83 mg/dL | ABSOLUTE BASOPHIL [2]: 0 CELLS/uL | ABSOLUTE EOSINOPHIL [2]: 188.5 CELLS/uL | ABSOLUTE LYMPHOCYTE [2]: 12360.83 CELLS/uL | ABSOLUTE MONOCYTE [2]: 64.33 CELLS/uL | ABSOLUTE SEGMENTED NEUTROPHIL [2]: 1986.33 CELLS/uL | BASOPHIL [2]: 0% | EOSINOPHIL [2]: 1.33% | ERYTHROCYTE COUNT [2]: 5.52 x10E6/uL | HEMATOCRIT [2]: 35.82% | HEMOGLOBIN [2]: 13.25 G/DL | LEUKOCYTE COUNT [2]: 14.6 x10E3/uL | LYMPHOCYTE [2]: 84.5% | MEAN CORPUSCULAR HEMOGLOBIN [2]: 24.05 pg | MEAN CORPUSCULAR HEMOGLOBIN CONCENTRATION [2]: 36.98 G/DL | MEAN CORPUSCULAR VOLUME [2]: 64.97 fL | MONOCYTE [2]: 0.5% | NEUTROPHIL [2]: 13.67% | NUCLEATED RED BLOOD CELLS [2]: 0 /100WBC | PLATELET COUNT [2]: 1297.83 x10E3/uL | ALANINE AMINOTRANSFERASE [2]: 51.17 u/L | ALKALINE PHOSPHATASE [2]: 393.17 u/L | ASPARTATE AMINOTRANSFERASE [2]: 111 u/L | BLOOD UREA NITROGEN [2]: 18.17 mg/dL | CARBON DIOXIDE [2]: 25 mmol/L | CHLORIDE [2]: 105.17 MEQ/L | CHOLESTEROL [2]: 65.5 mg/dL | CREATINE PHOSPHOKINASE [2]: 911.5 u/L | CREATININE [2]: 0.21 mg/dL | GLUCOSE [2]: 183 mg/dL | LACTATE DEHYDROGENASE [2]: 189 u/L | LIPASE [2]: 8.33 u/L | PHOSPHORUS [2]: 12.78 mg/dL | POTASSIUM [2]: 6.05 MEQ/L | SODIUM [2]: 144.57 MEQ/L | TOTAL BILIRUBIN [2]: 0.25 mg/dL | TOTAL PROTEIN [2]: 5.83 G/DL | URIC ACID [2]: 1.58 mg/dL | ABSOLUTE BASOPHIL [3]: 0 CELLS/uL | ABSOLUTE EOSINOPHIL [3]: 0 CELLS/uL | ABSOLUTE LYMPHOCYTE [3]: 10952 CELLS/uL | ABSOLUTE MONOCYTE [3]: 127.67 CELLS/uL | ABSOLUTE SEGMENTED NEUTROPHIL [3]: 1687 CELLS/uL | BASOPHIL [3]: 0% | EOSINOPHIL [3]: 0% | ERYTHROCYTE COUNT [3]: 5.23 x10E6/uL | HEMATOCRIT [3]: 32.37% | HEMOGLOBIN [3]: 11.97 G/DL | LEUKOCYTE COUNT [3]: 12.77 x10E3/uL | LYMPHOCYTE [3]: 86.33% | MEAN CORPUSCULAR HEMOGLOBIN [3]: 22.9 pg | MEAN CORPUSCULAR HEMOGLOBIN CONCENTRATION [3]: 37 G/DL | MEAN CORPUSCULAR VOLUME [3]: 61.93 fL | MONOCYTE [3]: 1% | NEUTROPHIL [3]: 12.67% | NUCLEATED RED BLOOD CELLS [3]: 0 /100WBC | PLATELET COUNT [3]: 1138.33 x10E3/uL | ALANINE AMINOTRANSFERASE [3]: 57.67 u/L | ALKALINE PHOSPHATASE [3]: 333.67 u/L | ASPARTATE AMINOTRANSFERASE [3]: 91.67 u/L | BLOOD UREA NITROGEN [3]: 17.33 mg/dL | CARBON DIOXIDE [3]: 27 mmol/L | CHLORIDE [3]: 104.67 MEQ/L | CHOLESTEROL [3]: 71 mg/dL | CREATINE PHOSPHOKINASE [3]: 483 u/L | CREATININE [3]: 0.24 mg/dL | GLUCOSE [3]: 177 mg/dL | LACTATE DEHYDROGENASE [3]: 117.33 u/L | LIPASE [3]: 7.67 u/L | PHOSPHORUS [3]: 13 mg/dL | POTASSIUM [3]: 6.18 MEQ/L | SODIUM [3]: 146.27 MEQ/L | TOTAL BILIRUBIN [3]: 0.17 mg/dL | TOTAL PROTEIN [3]: 5.53 G/DL | URIC ACID [3]: 1.6 mg/dL
